Experimental data reported in US11008340B2, “Modulators of ROR-gamma” (Vitae Pharmaceuticals, LLC, priority 2015, dated 2021).
Read-outs that look alike come from different tables or passages of the source.

Columns and labels:
[1] = target: T1, full-length RORγt in Jurkat cells (Homo sapiens, UniProt P51449); assay: RORγt 5×RORE Assay in Jurkat Cells (Assay 2); format: cell-based; details: 5×RORE luciferase reporter
T1 construct: transcriptional activity of the full-length RORγt in Jurkat cells; host or cells: Jurkat cells (ATCC TIB-152)
T1 sequence (P51449 1-497 isoform P51449-2): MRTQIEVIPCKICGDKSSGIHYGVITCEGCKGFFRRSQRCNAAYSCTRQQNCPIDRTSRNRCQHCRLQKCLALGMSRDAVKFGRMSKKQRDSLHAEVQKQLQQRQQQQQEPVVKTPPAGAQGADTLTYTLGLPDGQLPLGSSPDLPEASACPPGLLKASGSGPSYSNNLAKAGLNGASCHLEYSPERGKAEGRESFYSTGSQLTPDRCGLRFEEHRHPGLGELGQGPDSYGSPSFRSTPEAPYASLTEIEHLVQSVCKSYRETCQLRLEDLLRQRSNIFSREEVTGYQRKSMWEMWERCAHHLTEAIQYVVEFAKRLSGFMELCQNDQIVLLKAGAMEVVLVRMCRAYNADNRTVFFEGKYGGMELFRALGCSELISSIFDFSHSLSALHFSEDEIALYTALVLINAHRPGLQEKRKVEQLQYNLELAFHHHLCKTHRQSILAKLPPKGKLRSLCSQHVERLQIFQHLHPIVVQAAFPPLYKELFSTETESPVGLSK
Outline: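 Inverse agonism measured as reduced NanoGlo signal from secreted NanoLuc in conditioned supernatant after 16-18 hrs compound exposure (37° C, 0.1% DMSO). Reporter: 5×RORE-driven secNluc, co-transfected with full-length RORγt into Jurkat cells cultured in delipidated-FBS, phenol-red-free RPMI.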

[2] = target: T2, recombinant RORγ Ligand Binding Domain (LBD) protein (Homo sapiens, UniProt P51449); assay: Radio-Ligand RORγ Binding Assay (Assay 1); details: radio-ligand competition, RORγ LBD, read-out: Avg ROR Bind Ki
T2 construct: 6×His; GST
T2 sequence (P51449 269-508 limits assumed): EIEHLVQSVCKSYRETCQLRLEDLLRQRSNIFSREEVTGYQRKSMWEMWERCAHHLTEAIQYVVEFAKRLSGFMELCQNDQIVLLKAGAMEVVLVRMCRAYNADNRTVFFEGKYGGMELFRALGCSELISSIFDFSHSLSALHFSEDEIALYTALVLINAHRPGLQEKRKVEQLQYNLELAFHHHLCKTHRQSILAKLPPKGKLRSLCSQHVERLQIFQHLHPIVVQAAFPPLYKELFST
Outline: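 Cell-free SPA competition between compound and 25-hydroxy[26,27-^3H]-cholesterol for 6×His-GST-tagged RORγ LBD in 50 mM HEPES pH 7.4 with NaCl, MgCl2, glycerol, CHAPS, octylglucoside and DTT. Mix was shaken 20 min, held 10 min at rt, then read after poly-Lys YSi beads. IC50 came from a four-parameter fit, and Ki from radioligand KD.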

[3] = 25-hydroxy [26,27-3H]-cholesterol
[4] = Table 20, read-out: Avg ROR γt/5x IC5
[5] = head without unit (Tables 15, 17), read-out: Avg ROR γt/5x IC50
[6] = head without unit (Tables 15, 17)

IC50 ([1]; read-out: Avg ROR γt/5x IC50) [nM] | Ki [2, 3] [nM] | IC50 [1, 4] [nM] | IC50 [1, 5] [nM] | Ki [2, 6] [nM] | Molecule
< 100 | < 100 | – | – | – | CCS(=O)(=O)c1ccc(CNC(=O)c2ccc3c(c2)CCN(Cc2ccc(Cl)cc2)C3C(C)C)cc1 (racemic) [Hy2A-19, 2-(4-chlorobenzyl)-N-(4-(ethylsulfonyl)benzyl)-1-isopropyl-1,2,3,4-tetrahydroisoquinoline-6-carboxamide]
> 1000 | < 100 | – | – | – | CCS(=O)(=O)c1ccc([C@H](CO)NC(=O)c2ccc3c(OCC4CCOCC4)nc(C)cc3c2)cc1 [Hy1A-1, (R)-N-(1-(4-(ethylsulfonyl)phenyl)-2-hydroxyethyl)-3-methyl-1-((tetrahydro-2H-pyran-4-yl)methoxy)isoquinoline-6-carboxamide]
– | < 100 | > 1000 | – | – | CC[C@@H]1CN(C2CCC(F)(F)CC2)Cc2cc(C(=O)N[C@@H](CO)c3ccc(S(=O)(=O)CC)cc3)ccc21 (single isomer, unassigned) [Hy7-32.1]
< 100 | < 100 | – | – | – | CCS(=O)(=O)c1ccc(CNC(=O)c2ccc3c(c2)CCN(Cc2ccc(Cl)cc2)[C@H]3C(C)C)cc1 (single isomer, unassigned) [Hy2A-20.1]
100 to 1000 | < 100 | – | – | – | CCS(=O)(=O)c1ccc([C@H](CO)NC(=O)c2ccc3c(COc4ccc(C(F)(F)F)cc4)nccc3c2)cc1 [Hy1A-24, (R)-N-(1-(4-(ethylsulfonyl)phenyl)-2-hydroxyethyl)-1-((4-(trifluoromethyl)phenoxy)methyl)isoquinoline-6-carboxamide]
– | – | – | 100 to 1000 | < 100 | CCS(=O)(=O)c1ccc(CNC(=O)c2cnc3c(c2)CCN(C[C@H]2CC[C@H](C(F)(F)F)CC2)[C@H]3C(C)C)cc1 (single isomer, unassigned) [Hy2B-9.1]
– | < 100 | 100 to 1000 | – | – | CCS(=O)(=O)c1ccc(CNC(=O)c2ccc3c(c2)CN(c2ncc(Cl)cn2)C[C@H]3C(C)C)cc1 (single isomer, unassigned) [Hy7-3.1]
– | < 100 | > 1000 | – | – | CC[C@H]1CN(c2ncc(Cl)cn2)Cc2cc(C(=O)N[C@@H](CO)c3ccc(S(=O)(=O)CC)cc3)ccc21 (single isomer, unassigned) [Hy7-6.2]
– | < 100 | < 100 | – | – | CC[C@@H]1CN(c2ncc(C(F)(F)F)cc2C#N)Cc2cc(C(=O)N[C@@H](CO)c3ccc(S(=O)(=O)CC)cc3)ccc21 (single isomer, unassigned) [Hy7-37.1]
> 1000 | < 100 | – | – | – | Mixture of N-((R)-1-(4-(ethylsulfonyl)phenyl)-2-hydroxyethyl)-3-methyl-1-(((3S,6S)-6-(trifluoromethyl)tetrahydro-2H-pyran-3-yl)methoxy)isoquinoline-6-carboxamide and N-((R)-1-(4-(ethylsulfonyl)phenyl)-2-hydroxyethyl)-3-methyl-1-(((3R,6R)-6-(trifluoromethyl)tetrahydro-2H-pyran-3-yl)methoxy)isoquinoline-6-carboxamide [Hy1A-18.3]
– | < 100 | > 1000 | – | – | CC[C@H]1CN(c2ncc(C3CC3)cn2)Cc2cc(C(=O)N[C@@H](CO)c3ccc(S(=O)(=O)CC)cc3)ccc21 (single isomer, unassigned) [Hy7-11.2]
– | < 100 | < 100 | – | – | CC[C@@H]1CN(c2ncc(C(F)(F)F)cc2C)Cc2cc(C(=O)NCc3ccc(S(=O)(=O)CC)cc3)ccc21 (single isomer, unassigned) [Hy7-13.1]
100 to 1000 | < 100 | – | – | – | CCS(=O)(=O)c1ccc(CNC(=O)c2sc3nc(C)nc(OCc4ccc(C(F)(F)F)cc4)c3c2C)cc1 [Hy6-1, N-(4-(ethylsulfonyl)benzyl)-2,5-dimethyl-4-((4-(trifluoromethyl)benzyl)oxy)thieno[2,3-d]pyrimidine-6-carboxamide]
100 to 1000 | 100 to 1000 | – | – | – | CCS(=O)(=O)c1ccc(CNC(=O)c2ccc3c(c2)CCN(Cc2ncc(C)cn2)[C@H]3C(C)C)cc1 (single isomer, unassigned) [Hy2A-12.1]
– | < 100 | > 1000 | – | – | CCC1CN(c2ncc(C(F)(F)F)cn2)Cc2cc(C(=O)N[C@@H](CO)c3ccc(S(=O)(=O)CC)cc3)ccc21 (single isomer, unassigned) [Hy7-17.2]
– | – | – | < 100 | < 100 | CCS(=O)(=O)c1ccc([C@H](CO)NC(=O)c2cc3ccnc(OC[C@H]4CC[C@H](C(F)(F)F)CC4)c3n2C)cc1 [Hy4-2, N-((R)-1-(4-(ethylsulfonyl)phenyl)-2-hydroxyethyl)-1-methyl-7-(((1r,4R)-4-(trifluoromethyl)cyclohexyl)methoxy)-1H-pyrrolo[2,3-c]pyridine-2-carboxamide]
< 100 | < 100 | – | – | – | CCS(=O)(=O)c1ccc([C@H](CO)NC(=O)c2ccc3c(OC[C@H]4CC[C@H](C(F)(F)F)CC4)nc(C4CC4)cc3c2)cc1 [Hy1A-21, 3-cyclopropyl-N-((R)-1-(4-(ethylsulfonyl)phenyl)-2-hydroxyethyl)-1-(((1r,4R)-4-(trifluoromethyl)cyclohexyl)methoxy)isoquinoline-6-carboxamide]
< 100 | < 100 | – | – | – | CCS(=O)(=O)c1ccc(CNC(=O)c2cn(C)c3c(OCc4ccc(C(F)(F)F)cc4)nccc23)cc1 [Hy5-3, N-(4-(ethylsulfonyl)benzyl)-1-methyl-7-((4-(trifluoromethyl)benzyl)oxy)-1H-pyrrolo[2,3-c]pyridine-3-carboxamide]
– | < 100 | < 100 | – | – | CCOC(=O)c1cnc(N2Cc3cc(C(=O)NCc4ccc(S(=O)(=O)CC)cc4)ccc3[C@H](C(C)C)C2)nc1 (single isomer, unassigned) [Hy7-16.1]
– | < 100 | 100 to 1000 | – | – | CC[C@H]1CN(c2ncc(-c3ncco3)cn2)Cc2cc(C(=O)N[C@@H](CO)c3ccc(S(=O)(=O)CC)cc3)ccc21 (single isomer, unassigned) [Hy7-33.2]
< 100 | < 100 | – | – | – | CCS(=O)(=O)c1ccc(CNC(=O)c2ccc3c(c2)CCN(Cc2ccc(F)cc2)C3C(C)C)cc1 (racemic) [Hy2A-13, N-(4-(ethylsulfonyl)benzyl)-2-(4-fluorobenzyl)-1-isopropyl-1,2,3,4-tetrahydroisoquinoline-6-carboxamide]
– | < 100 | 100 to 1000 | – | – | CCS(=O)(=O)c1ccc(CNC(=O)c2ccc3c(c2)CN(c2ncc(C#N)cn2)C[C@H]3C(C)C)cc1 (single isomer, unassigned) [Hy7-2.1]
– | – | – | 100 to 1000 | < 100 | CCS(=O)(=O)c1ccc(CNC(=O)c2cc3ccnc(OCc4ccc(C(F)(F)F)cc4)c3n2C)cc1 [Hy4-3, N-(4-(ethylsulfonyl)benzyl)-1-methyl-7-((4-(trifluoromethyl)benzyl)oxy)-1H-pyrrolo[2,3-c]pyridine-2-carboxamide]
< 100 | < 100 | – | – | – | CCS(=O)(=O)c1ccc(CNC(=O)c2ccc3c(c2)CCN(Cc2ccc(Cl)cn2)C3C(C)C)cc1 (racemic) [Hy2A-21, 2-((5-chloropyridin-2-yl)methyl)-N-(4-(ethylsulfonyl)benzyl)-1-isopropyl-1,2,3,4-tetrahydroisoquinoline-6-carboxamide]
< 100 | < 100 | – | – | – | CCS(=O)(=O)c1ccc(CNC(=O)c2ccc3c(c2)CCN(Cc2ccc(C#N)cc2)C3C(C)C)cc1 (racemic) [Hy2A-14, 2-(4-cyanobenzyl)-N-(4-(ethylsulfonyl)benzyl)-1-isopropyl-1,2,3,4-tetrahydroisoquinoline-6-carboxamide]
